± gives the expanded uncertainty stated by the source.
Columns and labels:
[1] = Molar enthalpy of transition or fusion; details: Crystal; DSC
[2] = Crystal; DTA

In the case of `O=C(O)/C=C/C(=O)O.OCCOCCN1CCN(C2=Nc3ccccc3Sc3ccccc32)CC1.OCCOCCN1CCN(C2=Nc3ccccc3Sc3ccccc32)CC1` [quetiapine fumarate], the “Molar enthalpy of transition or fusion” value [1] is reported as 17.8 ± 0.478 kcal/mol and the Normal melting temperature [2] is reported as 173.47 ± 0.61 °C.

From the NIST ThermoML archive (doi:10.1021/acs.jced.7b00518)
